# Assay results reported in patent US4071411A, “Antitumor antibiotics aclacinomycins A and B [RD-9187A]” (priority 1974, dated 1978).
# Entries after “also recorded” stand apart in the source; their conditions may differ. Like-named read-outs stand apart in the source and are kept apart here.
# Experiments:
# hamsters = assay: acute cardiac alterations in the electrocardiograms of hamsters / cardiotoxicity; conditions: hamster, in vivo
# lymphoma 6C3HED = lymphoma 6C3HED in mice (summary in words); type: in vivo
# leukemia L1210 = leukemia L1210 in mice (summary in words); type: in vivo
# L1210 cells = assay: cells; type: cell-based, mice; conditions: 3 days; for IC50: Mus musculus, L1210, 72 h, 37° C., read-out: ID50, growth; for inhibition of cell growth: below 1 mcg./ml. in the medium
# [1] = system: cultured mammalian tumor cells; assay: growth of tumor cells in culture (summary in words); type: cell-based
# [2] = system: P388 cells or L1210 cells; assay: survival of BDF1 mice inoculated with P388 or L1210 cells; type: in vivo; conditions: for T/C / 30 day survivors / Mean survival time: daily for 10 days; for 30 day survivors: control 0/8; for Mean survival time: control 10.0; for survival time prolonged, rate compared with control mice: dosage range 0.5 to 5 mg./kg. per day, i.p. daily for 10 days
# Description: 2. […] For example, when BDF1 mice weighing 18 to 22 grams are inoculated with 1 × 10^6 cells of P388 cells or 5 × 10^5 cells of L1210 cells intraperitoneally and aclacinomycin A and B and aclacinomycin A-DNA complex are administered intraperitoneally once daily for 10 days consecutively 24 hours after the inoculation, the survival time of the mice is prolonged remarkably at the rate of over 150% in a dosage range of 0.5 to 5 mg./kg. of body weight per day compared with control mice receiving no antibiotic, as shown in the following table: […]
# rabbits = assay: lethal dose (LD50) on rabbits; type: in vivo
# Vaccinia virus = assay: microbe, parasite or virus in culture; type: cell-based
# [3] = system: Protein synthesis (L1210 cells); assay: cells; type: cell-based, mice; conditions: Mus musculus, L1210, 1 h; 14C-precursor incorporation, 37° C., 60 min.; read-out: ID50, Protein synthesis
# [4] = system: RNA synthesis (L1210 cells); assay: cells; type: cell-based, mice; conditions: for IC50: Mus musculus, L1210, 1 h, 14C-precursor incorporation, 37° C., 60 min., read-out: ID50, RNA synthesis
# [5] = system: Gram-positive bacteria and yeasts; assay: antimicrobial activity (summary in words); type: cell-based
# Mouse = assay: acute toxicity, single injection; type: in vivo; conditions: mice
# [6] = acute toxicity, single injection; type: in vivo, Mouse; conditions: mouse, in vivo, single injection
# various animal tumors = assay: antitumor activity in animal tumors (summary in words); type: in vivo; conditions: experimental animal tumors
# leukemia P388 = leukemia P388 in mice (summary in words); type: in vivo
# Ps. aeruginosa A20229 = assay: antimicrobial spectrum, broth dilution method; type: cell-based; conditions: Pseudomonas aeruginosa
# Description: (§1) 1. The antimicrobial spectrum of aclacinomycins A and B was determined by the broth dilution method as follows: […]
# Staph. aureus Smith = assay: antimicrobial spectrum, broth dilution method; type: cell-based; conditions: Staphylococcus aureus, read-out: Minimum Inhibitory Concentration
# Description: as §1
# Staph. aureus FDA 209P = assay: antimicrobial spectrum, broth dilution method; type: cell-based; conditions: Staphylococcus aureus, FDA209P, read-out: Minimum Inhibitory Concentration
# Description: as §1
# Cory. bovis 1810 = assay: antimicrobial spectrum, broth dilution method; type: cell-based
# Description: as §1
# Can tropicalis IAM 4924 = assay: antimicrobial spectrum, broth dilution method; type: cell-based; conditions: read-out: Minimum Inhibitory Concentration
# Description: as §1
# [7] = system: Bacillus subtilis ATCC 6633; assay: antimicrobial spectrum, broth dilution method; type: cell-based
# Description: as §1
# Diplo. pneumoniae Type 3 = assay: antimicrobial spectrum, broth dilution method; type: cell-based; conditions: Streptococcus pneumoniae
# Description: as §1
# Strept. faecalis = assay: antimicrobial spectrum, broth dilution method; type: cell-based; conditions: Enterococcus faecalis, read-out: Minimum Inhibitory Concentration
# Description: as §1
# Diplo. pneumoniae Type 1 = assay: antimicrobial spectrum, broth dilution method; type: cell-based; conditions: Streptococcus pneumoniae
# Description: as §1
# [8] = system: Mycobact. smegmatis ATCC 607; assay: antimicrobial spectrum, broth dilution method; type: cell-based; conditions: read-out: Minimum Inhibitory Concentration
# Description: as §1
# B. cereus ATCC 9634 = assay: antimicrobial spectrum, broth dilution method; type: cell-based; conditions: Bacillus cereus
# Description: as §1
# Sar. lutea ATCC 9341 = assay: antimicrobial spectrum, broth dilution method; type: cell-based; conditions: Micrococcus luteus
# Description: as §1
# Can. albicans IAM 4905 = assay: antimicrobial spectrum, broth dilution method; type: cell-based; conditions: Candida albicans
# Description: as §1
# Mic. flavus = assay: antimicrobial spectrum, broth dilution method; type: cell-based; conditions: Micrococcus flavus, read-out: Minimum Inhibitory Concentration
# Description: as §1
# [9] = system: Kl. pneumoniae ATCC 10031; assay: antimicrobial spectrum, broth dilution method; type: cell-based; conditions: Klebsiella pneumoniae
# Description: as §1
# B. megaterium = assay: antimicrobial spectrum, broth dilution method; type: cell-based; conditions: Priestia megaterium, read-out: Minimum Inhibitory Concentration
# Description: as §1
# St. pyogenes NY 5 = assay: antimicrobial spectrum, broth dilution method; type: cell-based; conditions: Streptococcus pyogenes
# Description: as §1
# E. coli K12 = assay: antimicrobial spectrum, broth dilution method; type: cell-based; conditions: Escherichia coli
# Description: as §1
# solubility = conditions: for solubility in low polar solvents: ether, hexane, cyclohexane, petroleum ether as listed; for solubility in organic solvents: methanol, ethanol, chloroform, ethyl acetate, acetone etc.
compound,measurement,setting,value
CCC1(O)CC(OC2CC(N(C)C)C(OC3CC4OC5CC(=O)C(C)OC5OC4C(C)O3)C(C)O2)c2c(cc3c(c2O)C(=O)c2c(O)cccc2C3=O)C1C(=O)OC (centres unmarked) [Aclacinomycin B],cardiotoxicity on hamsters,hamsters,extremely low cardiotoxicity
same,"life prolongation, mice inoculated with lymphoma 6C3HED",lymphoma 6C3HED,markedly prolong the lives
same,inhibition of growth of leukemia L1210,leukemia L1210,effective in inhibiting the growth
same,"life prolongation, mice inoculated with leukemia L1210",leukemia L1210,markedly prolong the lives
same,IC50,L1210 cells,0.24 µg/mL
same,inhibition of cell growth,L1210 cells,over 50%
same,inhibition of growth of tumor cells in culture (in words),[1],remarkable inhibitory effect
same,T/C,[2]; 0.5 mg./kg./day i.p.,147%
same,30 day survivors,[2]; 0.5 mg./kg./day i.p.,0/4
same,Mean survival time,[2]; 0.5 mg./kg./day i.p.,14.7 days
same,T/C,[2]; 1.0 mg./kg./day i.p.,190%
same,30 day survivors,[2]; 1.0 mg./kg./day i.p.,1/4
same,Mean survival time,[2]; 1.0 mg./kg./day i.p.,19.0 days
same,T/C,[2]; 2.0 mg./kg./day i.p.,175%
same,30 day survivors,[2]; 2.0 mg./kg./day i.p.,0/4
same,Mean survival time,[2]; 2.0 mg./kg./day i.p.,17.5 days
same,T/C,[2]; 4.0 mg./kg./day i.p.,85%
same,30 day survivors,[2]; 4.0 mg./kg./day i.p.,0/4
same,Mean survival time,[2]; 4.0 mg./kg./day i.p.,8.5 days
same,"survival time prolonged, rate compared with control mice",[2],over 150%
same,"lethal dose (LD50), in words",rabbits,high lethal dose
same,inhibition of growth of vaccinia virus (in words),Vaccinia virus,effective in inhibiting the growth
same,IC50,"Vaccinia virus; Orthopoxvirus vaccinia, HeLa; read-out: ID50, Vaccinia virus",< 10 µg/mL
same,IC50,[3],12 µg/mL
same,inhibition of RNA synthesis (in words),[4],specific inhibition on RNA synthesis
same,IC50,[4],0.2 µg/mL
same,antimicrobial activity,[5],effective in inhibiting the growth; also recorded: strong antimicrobial activity
same,"lethal dose (LD50), in words",Mouse,high lethal dose
same,LD50,"[6]; ip, intraperitoneal",13.7 mg/kg
same,LD50,[6]; intravenous,16.4 mg/kg
same,antitumor activity (in words),various animal tumors,marked inhibitory effects; also recorded: potent antitumor activity
same,inhibition of growth of leukemia P388,leukemia P388,effective in inhibiting the growth
same,"life prolongation, mice inoculated with leukemia P388",leukemia P388,markedly prolong the lives
same,MIC,"Ps. aeruginosa A20229; A20229, read-out: Minimum Inhibitory Concentration",> 100 µg/mL
same,MIC,Staph. aureus Smith,< 0.2 µg/mL
same,MIC,Staph. aureus FDA 209P,< 0.2 µg/mL
same,MIC,"Cory. bovis 1810; Corynebacterium bovis, 1810, read-out: Minimum Inhibitory Concentration",< 0.2 µg/mL
same,MIC,Can tropicalis IAM 4924,20 µg/mL
same,MIC,"[7]; ATCC6633, read-out: Minimum Inhibitory Concentration",< 0.2 µg/mL
same,MIC,"Diplo. pneumoniae Type 3; TYPE3, read-out: Minimum Inhibitory Concentration",0.63 µg/mL
same,MIC,Strept. faecalis,2.5 µg/mL
same,MIC,"Diplo. pneumoniae Type 1; TYPE1, read-out: Minimum Inhibitory Concentration",0.63 µg/mL
same,MIC,[8],5 µg/mL
same,MIC,"B. cereus ATCC 9634; ATCC9634, read-out: Minimum Inhibitory Concentration",< 0.2 µg/mL
same,MIC,"Sar. lutea ATCC 9341; ATCC9341, read-out: Minimum Inhibitory Concentration",< 0.2 µg/mL
same,MIC,"Can. albicans IAM 4905; IAM4905, read-out: Minimum Inhibitory Concentration",10 µg/mL
same,MIC,Mic. flavus,< 0.2 µg/mL
same,MIC,"[9]; ATCC10031, read-out: Minimum Inhibitory Concentration",> 100 µg/mL
same,MIC,B. megaterium,< 0.2 µg/mL
same,MIC,"St. pyogenes NY 5; NY5, read-out: Minimum Inhibitory Concentration",1.25 µg/mL
same,MIC,"E. coli K12; K12, read-out: Minimum Inhibitory Concentration",> 100 µg/mL
same,solubility in acidic water,solubility; acidic water,soluble
same,solubility in low polar solvents,solubility,insoluble
same,solubility in organic solvents,solubility,soluble
same,solubility in water,solubility,slightly soluble
CCC1(O)CC(OC2CC(N(C)C)C(OC3CC(O)C(OC4CCC(=O)C(C)O4)C(C)O3)C(C)O2)c2c(cc3c(c2O)C(=O)c2c(O)cccc2C3=O)C1C(=O)OC (centres unmarked) [Aclacinomycin A],cardiotoxicity on hamsters,hamsters,extremely low cardiotoxicity
same,inhibition of growth of lymphoma 6C3HED,lymphoma 6C3HED,effective in inhibiting the growth
same,"life prolongation, mice inoculated with lymphoma 6C3HED",lymphoma 6C3HED,markedly prolong the lives
same,inhibition of growth of leukemia L1210,leukemia L1210,effective in inhibiting the growth
same,"life prolongation, mice inoculated with leukemia L1210",leukemia L1210,markedly prolong the lives
same,IC50,L1210 cells,0.12 µg/mL
same,inhibition of cell growth,L1210 cells,over 50%
same,inhibition of growth of tumor cells in culture (in words),[1],remarkable inhibitory effect
same,T/C,[2]; 0.5 mg./kg./day i.p.,230%
same,30 day survivors,[2]; 0.5 mg./kg./day i.p.,2/4
same,Mean survival time,[2]; 0.5 mg./kg./day i.p.,23.0 days
same,T/C,[2]; 1.0 mg./kg./day i.p.,280%
same,30 day survivors,[2]; 1.0 mg./kg./day i.p.,3/4
same,Mean survival time,[2]; 1.0 mg./kg./day i.p.,28.0 days
same,T/C,[2]; 2.0 mg./kg./day i.p.,300%
same,30 day survivors,[2]; 2.0 mg./kg./day i.p.,4/4
same,Mean survival time,[2]; 2.0 mg./kg./day i.p.,30.0 days
same,T/C,[2]; 4.0 mg./kg./day i.p.,215%
same,30 day survivors,[2]; 4.0 mg./kg./day i.p.,1/4
same,Mean survival time,[2]; 4.0 mg./kg./day i.p.,21.5 days
same,"survival time prolonged, rate compared with control mice",[2],over 150%
same,"lethal dose (LD50), in words",rabbits,high lethal dose
same,inhibition of growth of vaccinia virus (in words),Vaccinia virus; HeLa cells,effective in inhibiting the growth
same,IC50,"Vaccinia virus; Orthopoxvirus vaccinia, HeLa, read-out: ID50, Vaccinia virus",< 10 µg/mL
same,IC50,[3],6.3 µg/mL
same,inhibition of RNA synthesis (in words),[4],specific inhibition on RNA synthesis
same,IC50,[4],0.1 µg/mL
same,antimicrobial activity,[5],effective in preventing the growth; also recorded: strong antimicrobial activity
same,"lethal dose (LD50), in words",Mouse,high lethal dose
same,LD50,"[6]; ip, intraperitoneal",22.6 mg/kg
same,LD50,[6]; intravenous,33.7 mg/kg
same,antitumor activity (in words),various animal tumors,marked inhibitory effects; also recorded: potent antitumor activity
same,inhibition of growth of leukemia P388,leukemia P388,effective in inhibiting the growth
same,"life prolongation, mice inoculated with leukemia P388",leukemia P388,markedly prolong the lives
same,MIC,"Ps. aeruginosa A20229; A20229, broth dilution, read-out: Minimum Inhibitory Concentration",> 100 µg/mL
same,MIC,Staph. aureus Smith; broth dilution,< 0.2 µg/mL
same,MIC,Staph. aureus FDA 209P; broth dilution,< 0.63 µg/mL
same,MIC,"Cory. bovis 1810; Corynebacterium bovis, 1810, broth dilution, read-out: Minimum Inhibitory Concentration",< 0.2 µg/mL
same,MIC,Can tropicalis IAM 4924; broth dilution,20 µg/mL
same,MIC,"[7]; ATCC6633, broth dilution, read-out: Minimum Inhibitory Concentration",< 0.2 µg/mL
same,MIC,"Diplo. pneumoniae Type 3; TYPE3, broth dilution, read-out: Minimum Inhibitory Concentration",0.63 µg/mL
same,MIC,Strept. faecalis; broth dilution,2.5 µg/mL
same,MIC,"Diplo. pneumoniae Type 1; TYPE1, broth dilution, read-out: Minimum Inhibitory Concentration",0.63 µg/mL
same,MIC,[8]; broth dilution,2.5 µg/mL
same,MIC,"B. cereus ATCC 9634; ATCC9634, broth dilution, read-out: Minimum Inhibitory Concentration",< 0.2 µg/mL
same,MIC,"Sar. lutea ATCC 9341; ATCC9341, broth dilution, read-out: Minimum Inhibitory Concentration",< 0.2 µg/mL
same,MIC,"Can. albicans IAM 4905; IAM4905, broth dilution, read-out: Minimum Inhibitory Concentration",10 µg/mL
same,MIC,Mic. flavus; broth dilution,< 0.2 µg/mL
same,MIC,"[9]; ATCC10031, broth dilution, read-out: Minimum Inhibitory Concentration",> 100 µg/mL
same,MIC,B. megaterium; broth dilution,< 0.63 µg/mL
same,MIC,"St. pyogenes NY 5; NY5, broth dilution, read-out: Minimum Inhibitory Concentration",1.25 µg/mL
same,MIC,"E. coli K12; K12, broth dilution, read-out: Minimum Inhibitory Concentration",> 100 µg/mL
same,solubility in low polar solvents,solubility,insoluble
same,solubility in organic solvents,solubility,soluble
same,solubility in water,solubility,slightly soluble
